Measured values taken from US7101719B2, “Support and method for cell based assays” (GE Healthcare Limited, priority 2000, dated 2006).

Legend:
Format in all cases: cell-based
CHO cells [1] = experiment: Parallel assay of incorporation of [35S]methionine into CHO cells on CYTODEX/YOx Microcarriers (Example 3); details: cycloheximide 10 μM, without inhibitor 1700 IODs, 'no cell' controls 650 IODs, FIG. 4
Method: (§1) 40 mg of YOx-loaded CYTODEX™ Microcarrier beads were dispensed into suitable sterile containers and allowed to settle. The supernatant was removed from each microcarrier pellet and the beads resuspended in 5 ml of either complete Ham's F12 nutrient mix (Sigma N-4888) or DMEM (Sigma D-6546), both containing 10% FCS, 2 mM L-glutamine and 50 μg/ml streptamycin/50 IU/ml penicillin. The microcarriers were incubated at 37° C. for thirty minutes without rolling.
(§2) 10×10^6 CHO or HeLa cells in 5 ml complete medium were added to separate microcarrier preparations and the cultures incubated at 37° C. for thirty minutes without rolling. After the initial incubation cultures were incubated overnight at 37° C. with rolling. Following the overnight incubation, unattached cells were removed and the beads resuspended in 10 ml complete culture medium. Microcarriers/cells were maintained in culture until the cell density had reached a sufficient level. Culture medium was replaced every two days.
(§3) Cycloheximide was prepared as a 1 mM stock in phosphate buffered saline and added to the cultures at a final concentration of 10 μM. […]
(§4) Each microcarrier preparation was allowed to settle and the growth medium removed. […] Plates were read on the LEADseeker™ Imaging System with a 5 minute exposure time to detect cellular associated methionine.

CHO cells [2] = experiment: Uptake of radiolabelled methionine into CHO cells cultured on CYTODEX/YOx Microcarriers (Example 2); details: cycloheximide 10 μM final concentration; CCD imaging; FIG. 1
Method: CYTODEX™ and CYTODEX™/YOx Microcarrier beads were dispensed into sterile universal containers. Beads were collected by centrifugation at 100 rpm for one minute. Supernatants were removed and replaced with complete Ham's F12 nutrient mix containing 10% (v\v) FCS. Beads were incubated with rolling at 37° C. for 30 minutes. Beads were harvested by centrifugation at 100 rpm for 1 minute. Spent medium was removed and replaced with 10^7 cells in 500 μl or less. Beads plus cells were incubated at 37° C. for 20 minutes to permit cell attachment to beads. Fresh Ham's F12 medium was added to a final volume of 4 ml containing 5 mg/ml beads for [^35S] and 10 mg/ml for [^14C] or [^3H]. Beads were left to roll overnight at 37° C. Following overnight incubation, beads/cells were harvested by centrifugation at 100 rpm for 1 minute. Supernatant containing unattached cells was removed. Microcarrier beads were washed with PBS (×1) and resuspended in methionine deficient DMEM supplemented with radiolabelled methionine. Cultures were returned to 37° C. with rolling. [^3H]Methionine and [^14C] or [^35S]methionine were included at final concentrations of 8 μCi/ml and 4 μCi/ml respectively. […]

HeLa cells = experiment: Parallel assay of incorporation of [35S]methionine into HeLa cells on CYTODEX/YOx Microcarriers (Example 3); details: cycloheximide 10 μM, without inhibitor 900 IODs, 'no cell' controls 650 IODs, FIG. 4
Method: as §1, §2, §3, §4

C[C@@H]1C[C@@H]([C@H](O)CC2CC(=O)NC(=O)C2)C(=O)[C@@H](C)C1 [cycloheximide]
signal of [35S]methionine incorporation in the presence of protein synthesis inhibitor (CHO cells [1]): 650 IODs
uptake of [35S]methionine into CHO cells (CHO cells [2]): inhibited
signal of [35S]methionine incorporation in the presence of protein synthesis inhibitor (HeLa cells): 600 IODs
